From patent US6433165B1, “Chemokine receptor antagonists and methods of use therefor” (Millennium Pharmaceuticals, Inc., priority 1998, dated 2002)

Each compound was assayed against T1, RANTES / MIP-1α binding to THP-1 cell membranes (Homo sapiens, UniProt P32246) (assay: Receptor binding assay, 125I-RANTES or 125I-MIP-1α binding to THP-1 cell membranes). Conditions: not given.
T1 sequence (P32246 1-355): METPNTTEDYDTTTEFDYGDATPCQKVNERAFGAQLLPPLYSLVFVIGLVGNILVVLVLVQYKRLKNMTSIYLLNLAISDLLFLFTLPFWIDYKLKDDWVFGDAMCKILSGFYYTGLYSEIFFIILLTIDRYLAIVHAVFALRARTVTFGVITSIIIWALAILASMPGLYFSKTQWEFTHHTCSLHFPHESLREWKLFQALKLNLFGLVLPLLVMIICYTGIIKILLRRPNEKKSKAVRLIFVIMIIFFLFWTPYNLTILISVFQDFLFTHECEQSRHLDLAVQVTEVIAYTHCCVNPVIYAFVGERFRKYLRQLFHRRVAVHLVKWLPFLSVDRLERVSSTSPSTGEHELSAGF
Description: Membranes were prepared from THP-1 cells (ATCC #TIB202). Cells were harvested by centrifugation, washed twice with PBS (phosphate-buffered saline), and the cell pellets were frozen at −70 to −85° C. […] This procedure results in cell lysis. The suspension was mixed well to resuspend all of the frozen cell pellet. Nuclei and cell debris were removed by centrifugation of 400×g for 10 minutes at 4° C. The supernatant was transferred to a fresh tube and the membrane fragments were collected by centrifugation at 25,000×g for 30 minutes at 4° C. The supernatant was aspirated and the pellet was resuspended in freezing buffer consisting of 10 mM HEPES pH 7.5, 300 mM sucrose, 1 μg/ml each aprotinin, leupeptin, and chymostatin, and 10 μg/ml PMSF (approximately 0.1 ml per each 10^8 cells). All clumps were resolved using a minihomogenizer, and the total protein concentration was determined using a protein assay kit (Bio-Rad, Hercules, Calif., cat #500-0002). The membrane solution was then aliquoted and frozen at −70 to −85° C. until needed. Binding Assays utilized the membranes described above. […] The binding reactions were terminated by harvesting the membranes by rapid filtration through glass fiber filters (GF/B or GF/C, Packard) which were presoaked in 0.3% polyethyleneimine. The filters were rinsed with approximately 600 μl of binding buffer containing 0.5 M NaCl, dried, and the amount of bound radioactivity was determined by scintillation counting in a Topcount beta-plate counter.

| SMILES | IC50 [nM] |
| --- | --- |
| O=C(NCC1(CCCN2CCC(O)(c3ccc(Cl)cc3)CC2)c2ccccc2CSc2ccccc21)Oc1ccccc1 (centres unmarked) [Example 22, Phenyl N-[11-[3-(4-(4-chlorophenyl)-4-hydroxypiperidino)propyl]-6,11-dihydrodibenzo[b,e]thiepin-11-yl)methyl Carbamate] | < 1000 |
| N#CC1(CCCN2CCC(O)(c3ccc(Cl)cc3)CC2)c2ccccc2CSc2ccccc21 (centres unmarked) [Example 10, 4-(4-Chlorophenyl)-1-[3-(11-cyano-6,11-dihydrodibenzo[b,e]thiepin-11-yl)propyl]piperidin-4-ol] | < 1000 |
| O=C(CCN1CCC(O)(c2ccc(Cl)cc2)CC1)C1c2ccccc2CCc2ccccc21 [Example 24, 4-(4-Chlorophenyl)-1-[3-(10,11-dihydro-5H-dibenzo[a,d]cycloheptene-5-yl)-3-propioyl]piperidin-4-ol] | < 1000 |
| N#CC1(CCCN2CCC(O)(c3ccc(Cl)cc3)CC2)c2ccccc2CCc2ccccc21 [Example 2, 4-(4-Chlorophenyl)-1-[3-(5-cyano-10,11-dihydro-5H-dibenzo[a,d]cycloheptene-5-yl)propyl]piperidin-4-ol] | < 1000 |
| N#CC1(CCCN2CCC(O)(c3ccc(Cl)cc3)CC2)c2ccccc2C[S+]([O-])c2ccccc21 (single isomer, unassigned) [Example 14, 4-(4-Chlorophenyl)-1-[3-(11-cyano-6,11-dihydro-5-oxodibenzo[b,e]thiepin-11-yl)propyl]piperidin-4-ol] | < 1000 |

Same assay, conditions: 125I-RANTES or 125I-MIP-1α as ligand; THP-1 cell membranes; 60 min at room temperature; read-out: IC50 (inhibitor concentration required for 50% inhibition of specific binding)

| SMILES | IC50 [nM] |
| --- | --- |
| N#CC1(CCCN2CCC(O)(c3ccccc3)CC2)c2ccccc2CSc2ccccc21 (centres unmarked) [Example 11, 1-[3-(11-Cyano-6,11-dihydrodibenzo[b,e]thiepin-11-yl)propyl]-4-phenylpiperidin-4-ol] | < 100000 |
| OC1(c2ccc(Cl)cc2)CCN(CCCC2c3ccccc3CSc3ccccc32)CC1 (centres unmarked) [Example 17, 4-(4-Chlorophenyl)-1-[3-(6,11-dihydrodibenzo[b,e]thiepin-11-yl)propyl]piperidin-4-ol] | < 1000 |
| Cc1ccc2c(c1)C(C#N)(CCCN1CCC(O)(c3ccc(Cl)cc3)CC1)c1ccccc1CO2 (centres unmarked) [Example 7, 4-(4-Chlorophenyl)-1-[3-(11-cyano-6,11-dihydro-2-methyldibenz[b,e]oxepin-11-yl)propyl]piperidin-4-ol] | < 1000 |
| N#CC1(CCCN2CCC(O)(c3ccc(Cl)cc3)CC2)c2ccccc2CSc2ccc(Br)cc21 (centres unmarked) [Example 13, 1-[3-(2-Bromo-11-cyano-6,11-dihydrodibenzo[b,e]thiepin-11-yl)propyl]-4-(4-chlorophenyl)piperidin-4-ol] | < 1000 |
| OC1(c2ccc(Cl)cc2)CCN(CCCC2c3ccccc3COc3ccccc32)CC1 (centres unmarked) [Example 19, 4-(4-Chlorophenyl)-1-[3-(6,11-dihydrodibenz[b,e]oxepin-11-yl)propyl]piperidin-4-ol] | < 1000 |
| N#CC1(CCCN2CCC(O)(c3ccc(Cl)cc3)CC2)c2ccccc2C=Cc2ccccc21 [Example 1, 4-(4-Chlorophenyl)1-[3-(5-cyano-5H-dibenzo[a,d]cycloheptene-5-yl)propyl]piperidin-4-ol] | < 1000 |
| O=C(NCCCO)NCC1(CCCN2CCC(O)(c3ccc(Cl)cc3)CC2)c2ccccc2CSc2ccccc21 (centres unmarked) [Example 23, 1-[11-[3-(4-(4-chlorophenyl)-4-hydroxypiperidino)propyl]-6,11-dihydrodibenzo[b,e]thiepin-11-yl]methyl-8-(3-hydroxypropyl)urea] | < 10000 |
| OC1(c2ccc(Cl)cc2)CCN(CCCC2c3ccccc3CCc3ccccc32)CC1 [Example 18, 4-(4-Chlorophenyl)-1-[3-(10,11-dihydro-5H-dibenzo[a,d]cycloheptene-5-yl)propyl]piperidin-4-ol] | < 1000 |
| N#CC1(CCCN2CCC(O)(c3ccc(Cl)cc3)CC2)c2ccccc2COc2ccc(F)cc21 (centres unmarked) [Example 5, 4-(4-Chlorophenyl)-1-[3-(11-cyano-6,11-dihydro-2-fluorodibenz[b,e]oxepin-11-yl)propyl]piperidin-4-ol] | < 1000 |
| N#CC1(CCCN2CCC(O)(c3ccc(Cl)cc3)CC2)c2ccccc2CS(=O)(=O)c2ccccc21 (centres unmarked) [Example 16, 4-(4-Chlorophenyl)-1-[3-(11-cyano-6,11-dihydro-5,5-dioxodibenzo[b,e]thiepin-11-yl)propyl]piperidin-4-ol] | < 1000 |
| N#CC1(CCCN2CCC(O)(c3ccc(Cl)cc3)CC2)c2ccccc2COc2ccccc21 (centres unmarked) [Example 3, 4-(4-Chlorophenyl)-1-[3-(11-cyano-6,11-dihydrodibenz[b,e]oxepin-11-yl)propyl]piperidin-4-ol] | < 1000 |
| N#CC1(CCCN2CCC(O)(c3ccc(F)cc3)CC2)c2ccccc2COc2ccccc21 (centres unmarked) [Example 4, 1-[3-(11-Cyano-6,11-dihydrodibenz[b,e]oxepin-11-yl)propyl]-4-(4-fluorophenyl)piperidin-4-ol] | < 1000 |
| N#CC1(CCCN2CCC(O)(c3ccc(Br)cc3)CC2)c2ccccc2CSc2ccccc21 (centres unmarked) [Example 12, 4-(4-Bromophenyl)-1-[3-(11-cyano-6,11-dihydrodibenzo[b,e]thiepin-11-yl)propyl]piperidin-4-ol] | < 1000 |
| N#CC1(CCCN2CCC(O)(c3ccc(Cl)cc3)CC2)c2ccccc2COc2ccc(Br)cc21 (centres unmarked) [Example 6, 1-[3-(2-Bromo-11-cyano-6,11-dihydrodibenz[b,e]oxepin-11-yl)propyl]-4-(4-chlorophenyl)piperidin-4-ol] | < 1000 |

Same assay, conditions: read-out: IC50 (inhibitor concentration required for 50% inhibition of specific binding); 125I-RANTES or 125I-MIP-1α as ligand; THP-1 cell membranes; 60 min at room temperature

| SMILES | IC50 [nM] |
| --- | --- |
| N#CC1(CCCN2CCC(O)(c3ccc(Cl)cc3)CC2)c2ccccc2C[S+]([O-])c2ccccc21 (single isomer, unassigned) [Example 15, 4-(4-Chlorophenyl)-1-[3-(11-cyano-6,11-dihydro-5-oxodibenzo[b,e]thiepin-11-yl)propyl]piperidin-4-ol] | < 1000 |
